Our source for the IC50 values is ChEMBL document CHEMBL3886808, “Pyrrolidine derivatives and their use as complement pathway modulators” (2016).

For the assay, the target named is Complement factor D (Homo sapiens, UniProt P00746). The assay is described as follows: In Vitro Assay: Recombinant human factor D (expressed in E. coli and purified using standard methods) at 10 nM concentration is incubated with test compound at various concentrations for 1 hour at room temperature in 0.1 M Hepes buffer, pH 7.5, containing 1 mM MgCl2, 1 M NaCl and 0.05% CHAPS. A synthetic substrate Z-Lys-thiobenzyl and 2,4-dinitrobenzenesulfonyl-fluoresceine are added to final concentrations of 200 μM and 25 μM, respectively. The increase in fluorescence is recorded at excitation of 485 nm and emission at 535 nm in a microplate spectrofluorimeter.
Complement factor D, sequence (P00746 whole entry): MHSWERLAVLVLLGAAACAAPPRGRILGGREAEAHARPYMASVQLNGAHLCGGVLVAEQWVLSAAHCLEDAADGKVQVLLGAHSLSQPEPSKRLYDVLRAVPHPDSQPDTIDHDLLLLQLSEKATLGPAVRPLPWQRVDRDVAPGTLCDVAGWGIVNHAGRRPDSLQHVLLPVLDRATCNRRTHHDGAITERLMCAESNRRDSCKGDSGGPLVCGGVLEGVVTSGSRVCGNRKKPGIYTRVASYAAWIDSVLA

For `CC(=O)c1nn(CC(=O)N2[C@@H]3C[C@@H]3C[C@H]2C(=O)NCCCC(F)(F)F)c2ncccc12`, the IC50 (in general, the point on the concentration scale where inhibition reaches its midpoint) came out at 1140 nM.
For `CC(F)(F)CCNC(=O)[C@@H]1C[C@H]2C[C@H]2N1C(=O)Cn1nc(C(N)=O)c2ccccc21` the value was 1050 nM.
